What was measured:
human HDAC10 = target: T1, human HDAC10 (Homo sapiens, UniProt Q969S8); assay: HDAC10 enzymatic activity assay (fluorogenic peptide); format: biochemical; details: 10-dose, 3-fold serial dilution, triplicate
T1 sequence (Q969S8 1-631): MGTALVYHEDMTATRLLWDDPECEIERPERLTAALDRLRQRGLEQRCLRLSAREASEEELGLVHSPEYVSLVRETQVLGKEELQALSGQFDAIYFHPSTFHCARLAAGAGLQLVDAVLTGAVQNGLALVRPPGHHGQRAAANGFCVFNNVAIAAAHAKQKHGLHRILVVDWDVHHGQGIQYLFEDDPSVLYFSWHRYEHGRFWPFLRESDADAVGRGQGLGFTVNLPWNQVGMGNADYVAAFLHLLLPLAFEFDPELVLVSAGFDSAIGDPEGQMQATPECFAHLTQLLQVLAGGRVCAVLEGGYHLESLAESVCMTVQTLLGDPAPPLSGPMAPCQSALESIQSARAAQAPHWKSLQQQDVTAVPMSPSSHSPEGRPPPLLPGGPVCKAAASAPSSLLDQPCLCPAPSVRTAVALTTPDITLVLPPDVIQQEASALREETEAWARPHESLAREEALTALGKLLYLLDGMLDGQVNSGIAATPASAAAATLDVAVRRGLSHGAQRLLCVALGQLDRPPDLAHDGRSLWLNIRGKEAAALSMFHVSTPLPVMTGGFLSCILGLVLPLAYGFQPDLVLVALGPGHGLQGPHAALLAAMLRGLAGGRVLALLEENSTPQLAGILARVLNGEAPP
Description: Peptide substrates: all HDAC assays were performed using acetylated peptide substrates labeled with 7-amino-4-methylcoumarin (AMC): • Substrate for isoforms HDAC1, 2, 3, 6, 10, 11, and HeLa nuclear extract assays: acetylated fluorogenic peptide from p53 residues 379-382 (RHKKAc). • Substrate for isoforms HDAC4, 5, 7, 9: fluorogenic Boc-L-Lys (s-trifluoroacetyl)-AMC. • Substrate for HDAC8 assays: acetylated fluorogenic peptide from p53 residues 379-382 (RHKAcKAc).
50 μl of peptide substrate (see “peptide substrates” section above) and an optimal concentration of the corresponding enzyme (see “enzymes” section above) in the assay buffer at a final DMSO concentration of 1% were incubated in the presence of gradient concentrations of inhibitors (10-dose IC50 mode with 3-fold serial dilution) at 30° C. for 2 hours. The reactions were carried out in a 96-well microplate for fluorometry in a 50 μl reaction volume. After the deacetylation reaction, Fluor-de-Lys-Developer (BioMol Cat. #KI-105) was added to each well to digest the deacetylated substrate, thereby producing the fluorescent signal. The reaction was carried out for 45 minutes at 30° C. with 5% CO2; the fluorescent signal was then measured using an excitation wavelength of 360 nm and an emission wavelength of 460 nm in a microplate-reading fluorometer (GeminiXS, Molecular Devices, Sunnyvale, CA). […]

ASBT = target: T2, ASBT (Homo sapiens, UniProt Q12908); assay: Uptake study, transporter ASBT (data not shown); format: in vitro ADME
T2 construct: expressed in transfected cells
T2 sequence (Q12908 1-348): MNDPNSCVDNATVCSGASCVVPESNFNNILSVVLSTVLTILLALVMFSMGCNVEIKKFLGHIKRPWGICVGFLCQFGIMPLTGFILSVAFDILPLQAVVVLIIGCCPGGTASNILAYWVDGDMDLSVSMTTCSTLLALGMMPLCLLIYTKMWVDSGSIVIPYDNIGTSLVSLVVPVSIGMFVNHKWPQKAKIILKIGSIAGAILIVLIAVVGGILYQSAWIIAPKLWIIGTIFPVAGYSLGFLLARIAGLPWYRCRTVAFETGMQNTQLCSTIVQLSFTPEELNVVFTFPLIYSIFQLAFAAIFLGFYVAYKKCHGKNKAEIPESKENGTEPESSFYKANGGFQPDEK
From the text: The bile acid and organic cation transporters expressed in hepatocytes and cholangiocytes were overexpressed in HepG2 cells (OCT1) and CHO cells (OCT3). The efficacy of the process was confirmed by means of measuring the abundance of mRNA (qPCR), protein (WB), and the correct insertion in the plasma membrane (immunofluorescence). The uptake studies included comparing the uptake efficiency of the compound with respect to dihydroethidium (DHE) in the case of OCT3, and sorafenib in the case of OCT1 (positive controls), as well as the sensitivity of the process to substrate inhibition induced by the joint administration of the compound and quinine. The cell content of all the compounds was determined by means of triple quadrupole HPLC-MS/MS after extraction thereof from the cell system used in each case.

PCK rats = assay: Chronic treatment of PCK rats (animal model of PLD), liver transaminase ALT; format: in vivo, rat; details: 7 mg/kg/day, 2 months
Description: PCK rats were chronically treated (2 months) with compound Ia (7 mg/kg/day).

[1] = test system: polycystic human cholangiocytes; assay: Primary cilium length (cilium staining, confocal microscopy), polycystic cells; format: cell-based; details: after treatment
Description: Cilium staining. Cells cultured on cover slips were washed with PBS, fixed with methanol, and blocked for one hour in a blocking buffer at room temperature. The γ-tubulin primary antibodies (1:100; Sigma-Aldrich, St Louis, MO) and acetylated α-tubulin primary antibodies (1:1000; Sigma-Aldrich) or IFT88 primary antibodies (1:100; ProteinTech, Rosemont, IL, USA) were incubated overnight at 4° C. After washing, Alexa Fluor 594 and 488 secondary antibodies were combined with the primary antibodies (Life Technologies, Carlsbad, CA, USA) and incubated for 2 hours at room temperature. The cover slips were placed on slides with Prolong Gold Antifade with Dapi (Invitrogen, Carlsbad, CA, USA). The slides were observed and images were taken using laser scanning confocal microscopy with a 60× objective (NIKON C1si Confocal Spectral Imaging System, NIKON Instruments Co., Melville, NY, USA). The field was magnified 4× to observe individual cilia. The images were opened with EZ-C1 3.90 Freeviewer and a scale bar was added. The images were converted to Tiff files and quantified using ImageJ Software. The scale bar saved in the image was measured and the scale established. Using the freehand tool, the cilia were traced and measurements taken.

Row | SMILES | IC50 (human HDAC10) | transport through ASBT (ASBT) | levels of liver transaminase ALT (PCK rats) | length of the cilia, polycystic human cholangiocytes [1]
1 | C[C@H](CCC(=O)NCc1ccc(C(=O)NO)cc1)[C@H]1CC[C@H]2[C@@H]3[C@@H](O)C[C@@H]4C[C@H](O)CC[C@]4(C)[C@H]3CC[C@]12C [Compound Ia] | 24.5 µM | not through ASBT | significantly reduced | significantly increased
2 | C[C@H](CCC(=O)NCC(=O)NCc1ccc(C(=O)NO)cc1)[C@H]1CC[C@H]2[C@@H]3[C@@H](O)C[C@@H]4C[C@H](O)CC[C@]4(C)[C@H]3CC[C@]12C [Ib, 4-((2-((R)-4 ((3R,5S,7S,8R,9S,10S,13R,14S,17R)-3,7-dihydroxy-10,13-dimethylhexadecahydro-1H-cyclopenta[a]phenanthren-17-yl)pentanamide)acetamido)methyl)-N-hydroxybenzamide] | 21.8 µM |  |  | 
